These results are taken from publication PMC8849072, “Sudapyridine (WX-081), a Novel Compound against Mycobacterium tuberculosis” (Microbiology Spectrum, 2022).

For data set [1], the system named is M. tuberculosis susceptible strain 14480. In words: MIC by microplate alamarBlue assay (MABA). Conditions: for MIC: Mycobacterium tuberculosis. In kind it is cell-based, Mycobacterium tuberculosis.
Data set [2] concerns M. tuberculosis susceptible strain 14241. The data set can be described thus: MIC by microplate alamarBlue assay (MABA). The class given is cell-based, Mycobacterium tuberculosis. The following applies: for MIC: Mycobacterium tuberculosis.
For data set [3], the system named is M. tuberculosis H37Rv. In words: MIC by microplate alamarBlue assay (MABA). The class given is cell-based, Mycobacterium tuberculosis. The following applies: for MIC: Mycobacterium tuberculosis, H37RV.
For data set [4] the following is noted: cited from earlier work.
The subject of data set [5] is M. tuberculosis susceptible strain 14242. The data set can be described thus: MBC determination (CFU-based). The following applies: 7 days incubation, 3 log10 CFU decrease.
In data set [6] the test system is M. tuberculosis susceptible strain 14286. In words: MIC by microplate alamarBlue assay (MABA). In kind it is cell-based, Mycobacterium tuberculosis. Conditions: for MIC: Mycobacterium tuberculosis.
For data set [7], the system named is M. tuberculosis susceptible strain 14242. The data set can be described thus: MIC by microplate alamarBlue assay (MABA). The class given is cell-based, Mycobacterium tuberculosis. The following applies: for MIC: Mycobacterium tuberculosis.
The test system of data set [8] is M. tuberculosis H37Rv. In words: MBC determination (CFU-based). The following applies: 7 days incubation, 3 log10 CFU decrease.
Data set [9] can be described thus: Pharmacokinetic study in rats. The class given is in vivo, rat. Conditions: Rat; for At 96 h lung/plasma: lung: lung exposure at 96 h (first number of the pair); for At 96 h lung/plasma: plasma: plasma exposure at 96 h (second number of the pair); for AUC(0-inf): read-out: AUC0-inf; for AUC(0-t): read-out: AUC0-last; for half-life: plasma. The protocol: (§1) The BALB/c mice, rats, and beagle dogs were used in the PK study and fasted overnight before dosing. Animal doses were administered in two ways. […] Plasma samples were collected from three animals at each time point. Plasma concentrations were determined by liquid chromatography-tandem mass spectrometry (LC-MS/MS). The bioanalytical method by LC-MS/MS for pharmacokinetic (PK) studies in animal and toxicokinetic (TK) in tox studies have been validated. The total area under the concentration-time curve (AUC0-inf), the elimination half-time (t1/2), the peak concentration (Cmax), and the time to reach peak concentration (Tmax) of samples were determined directly from the experimental data using WinNonlin V6.2.1.

Data set [10] deals with M. tuberculosis susceptible strain 14280. In words: MIC by microplate alamarBlue assay (MABA). In kind it is cell-based, Mycobacterium tuberculosis. The following applies: for MIC: Mycobacterium tuberculosis.
Data set [11] is described as follows: Pharmacokinetic study in mice. Conditions: Mice; for AUC(0-inf): read-out: AUC0-inf; for AUC(0-t): read-out: AUC0-last; for half-life: plasma; for At 96 h lung/plasma: lung: lung exposure at 96 h (first number of the pair); for At 96 h lung/plasma: plasma: plasma exposure at 96 h (second number of the pair). In kind it is in vivo, BALB/c mice. The protocol: as §1

Data set [12] is described as follows: 14-day repeated oral dose toxicity and toxicokinetic head-to-head study in beagle dogs. In kind it is in vivo, beagle dog. The following applies: 14 days; for ECG: QT interval / cTnI: 200 mg/kg; for cTnI: one of three males, all others BLQ.
For data set [13], the target named is T1, human ether-á-go-go-related (hERG) ion channel (Homo sapiens, UniProt Q12809).
T1 construct: expressed in transfected cells; host or cells: hERG-CHO cell (CHO cells expressing hERG)
The data set can be described thus: hERG manual patch-clamp assay in hERG-CHO cell. The class given is cell-based.
Method: A human ether-á-go-go-related (hERG) ion channel in vitro assay was performed in Shanghai Institute of Materia Medica, Shanghai, for the evaluation of cardiac liability testing. The assay was a manual patch-clamp method using electrophysiology in an hERG-CHO cell.

Where [14] appears, read: BALB/c, mouse, in vivo, Iv. 1.0 mg/kg.
Where [15] appears, read: BALB/c, mouse, in vivo, Po. 6.25 mg/kg.
Where [16] appears, read: beagle dogs, 200 mg/kg oral, listed as bedaquiline fumarate.

Molecules are shown by their SMILES. In brackets after ≈: the same amount, converted by molar mass.

T1 sequence (Q12809 whole entry): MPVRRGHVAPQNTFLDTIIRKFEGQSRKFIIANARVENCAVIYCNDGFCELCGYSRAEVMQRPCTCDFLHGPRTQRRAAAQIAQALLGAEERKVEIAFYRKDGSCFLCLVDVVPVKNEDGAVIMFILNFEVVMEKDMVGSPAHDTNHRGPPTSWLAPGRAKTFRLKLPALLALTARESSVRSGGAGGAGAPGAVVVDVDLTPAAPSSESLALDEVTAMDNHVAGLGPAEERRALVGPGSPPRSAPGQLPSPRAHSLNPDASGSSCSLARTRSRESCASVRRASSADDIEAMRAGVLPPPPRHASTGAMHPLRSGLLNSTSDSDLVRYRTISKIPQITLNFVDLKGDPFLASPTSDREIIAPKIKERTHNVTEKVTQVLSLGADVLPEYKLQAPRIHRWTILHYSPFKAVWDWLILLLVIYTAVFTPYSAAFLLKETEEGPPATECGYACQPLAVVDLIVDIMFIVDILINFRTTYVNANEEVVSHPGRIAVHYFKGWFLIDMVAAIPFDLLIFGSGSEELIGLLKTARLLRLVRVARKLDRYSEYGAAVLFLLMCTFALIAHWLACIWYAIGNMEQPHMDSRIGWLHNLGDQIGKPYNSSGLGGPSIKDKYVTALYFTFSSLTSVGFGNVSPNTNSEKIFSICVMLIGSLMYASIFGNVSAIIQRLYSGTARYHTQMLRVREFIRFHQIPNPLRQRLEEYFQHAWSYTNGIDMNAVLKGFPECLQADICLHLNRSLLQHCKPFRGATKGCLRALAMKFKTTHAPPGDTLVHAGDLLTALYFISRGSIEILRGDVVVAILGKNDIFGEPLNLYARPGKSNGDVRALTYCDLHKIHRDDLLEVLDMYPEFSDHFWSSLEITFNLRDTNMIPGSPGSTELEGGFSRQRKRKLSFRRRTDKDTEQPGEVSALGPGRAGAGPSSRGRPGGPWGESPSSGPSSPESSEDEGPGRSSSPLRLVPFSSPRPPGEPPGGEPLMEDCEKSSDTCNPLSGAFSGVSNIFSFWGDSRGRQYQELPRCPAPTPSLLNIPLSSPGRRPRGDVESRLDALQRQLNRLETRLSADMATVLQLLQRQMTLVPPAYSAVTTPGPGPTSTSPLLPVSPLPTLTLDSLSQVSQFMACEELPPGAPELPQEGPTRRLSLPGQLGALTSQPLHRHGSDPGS

Consider `COc1nc2ccc(Br)cc2cc1[C@@H](c1ccccc1)[C@@](O)(CCN(C)C)c1cccc2ccccc12` [BDQ, bedaquiline], for which the MIC is 0.037 µg/mL (≈ 0.0666 µM) in [1]; 0.029 µg/mL (≈ 0.0522 µM) in data set [2]; 0.012 µg/mL (≈ 0.0216 µM) against M. tuberculosis H37Rv [3]; 0.043 µg/mL (≈ 0.0774 µM) in data set [6]; 0.031 µg/mL (≈ 0.0558 µM) in data set [7]; 0.053 µg/mL (≈ 0.0954 µM) in [10]. Further, the elimination half-life in data set [4] is given as 5.5 months. Besides, the MBCs (in data set [5]; in the data set on M. tuberculosis H37Rv [8]) was 0.156 µg/mL each time. In addition, the “At 96 h lung/plasma: lung” value turned out to be 62.9 in [9] (Iv. 1.0 mg/kg), 58.8 in data set [9] (Po. 5.0 mg/kg), 27.1 in data set [11] (Iv. 1.0 mg/kg) and 135 in [11] (Po. 6.25 mg/kg). The “At 96 h lung/plasma: plasma” value in data set [9] (Iv. 1.0 mg/kg) came to 1.89; in data set [9] (Po. 5.0 mg/kg) it was 1.52; in data set [11] (Iv. 1.0 mg/kg) it was 1.31; in data set [11] (Po. 6.25 mg/kg), 4.56. The AUC(0-inf) in [9] (in vivo, Iv. 1.0 mg/kg) turned out to be 1930 ng·h/mL; in data set [9] (in vivo, Po. 5.0 mg/kg), 2680 ng·h/mL; in [11] (setting [14]) it was 2160 ng·h/mL; in data set [11] (setting [15]) it was 6360 ng·h/mL. Further, the AUC(0-t) in data set [9] (in vivo, Iv. 1.0 mg/kg) worked out at 1830 ng·h/mL; in [9] (in vivo, Po. 5.0 mg/kg) it was 2610 ng·h/mL; in data set [11] (setting [14]), 2100 ng·h/mL; in data set [11] (setting [15]) it was 6040 ng·h/mL. Moreover, the Vd is 10.3 L/kg in data set [9] (in vivo, Iv. 1.0 mg/kg, read-out: Vdss) and 6.21 L/kg in data set [11] (BALB/c, mouse, in vivo, Iv. 1.0 mg/kg, read-out: Vdss). Further, the Cmax was determined as 354 ng/mL in data set [9] (in vivo, Po. 5.0 mg/kg, read-out: Cmax) and 608 ng/mL in data set [11] (BALB/c, mouse, in vivo, Po. 6.25 mg/kg, read-out: Cmax). Moreover, the bioavailability in data set [9] (in vivo, Po. 5.0 mg/kg, read-out: F) was found to be 27.7%; in data set [11] (BALB/c, mouse, in vivo, Po. 6.25 mg/kg, read-out: F), 47.1%. Further, the time of peak concentration (Tmax) came to 0.83 h in data set [9] (in vivo, Po. 5.0 mg/kg, read-out: Tmax) and 5.33 h in data set [11] (BALB/c, mouse, in vivo, Po. 6.25 mg/kg, read-out: Tmax). The half-life in data set [9] (Iv. 1.0 mg/kg) is 37.6 h; in data set [9] (Po. 5.0 mg/kg) it was 29.3 h; in [11] (BALB/c, mouse, Iv. 1.0 mg/kg), 21.3 h; in [11] (BALB/c, mouse, Po. 6.25 mg/kg), 47.6 h.

As to `NC[C@H]1O[C@H](O[C@H]2[C@H](O)[C@@H](O[C@H]3O[C@H](CO)[C@@H](O)[C@H](N)[C@H]3O)[C@H](N)C[C@@H]2N)[C@H](O)[C@@H](O)[C@@H]1O` [KM, kanamycin], the MICs in [1] was found to be 1.907 µg/mL; in data set [2], 2.417 µg/mL; with M. tuberculosis H37Rv [3] (H37Rv) it was 0.730 µg/mL; in data set [6], 1.154 µg/mL; in [7], 1.146 µg/mL; in [10], 1.219 µg/mL.

As to `COc1nc2ccc(Br)cc2cc1[C@@H](c1ccccc1)[C@@](O)(CCN(C)C)c1cccc2ccccc12.O=C(O)/C=C/C(=O)O` [Bedaquiline fumarate, bedaquiline fumarate], the mortality and moribundity entry in data set [12] (200 mg/kg oral once daily, male and female dogs) was “did not result in mortality and moribundity”. In addition, in [12] (beagle dogs, 200 mg/kg oral), the “ECG: HR” value was “An increased incidence of first- and second-degree atrioventricular block”; the “qualitative ECG changes associated with oral administration” value was “increased incidence of first and second-degree atrioventricular (AV) block”; the “ECG: QT interval” value is on record as “Significant QT interval prolongation”; the cTnI is recorded as 440 (1/3 male) pg/mL. Moreover, in data set [12] (setting [16]), the “ECG: QT interval” value was “significant QTc interval prolongation” and the cTnI is recorded as 440 pg/mL. Moreover, the IC50 in [13] (parent compound) was greater than 30000 nM.

Take `CNCC[C@@](O)(c1cccc2ccccc12)[C@H](c1ccccc1)c1cc2cc(Br)ccc2nc1OC` [BDQ-M2]: the IC50 in data set [13] (metabolites) was 1730 nM.

For `NNC(=O)c1ccncc1` [INH, isoniazid], the minimum inhibitory concentration (MIC) in data set [1] is less than 0.02 µg/mL; in data set [2] it was 0.034 µg/mL (≈ 0.248 µM); in the data set on M. tuberculosis H37Rv [3], 0.031 µg/mL (≈ 0.226 µM); in data set [6], 0.03 µg/mL (≈ 0.219 µM); in data set [7], 0.028 µg/mL (≈ 0.204 µM); in data set [10], 0.024 µg/mL (≈ 0.175 µM).

As for `COc1c(N2C[C@@H]3CCCN[C@@H]3C2)c(F)cc2c(=O)c(C(=O)O)cn(C3CC3)c12` [MFX, moxifloxacin], the MIC in [2] is 0.122 µg/mL (≈ 0.304 µM); against M. tuberculosis H37Rv [3], 0.045 µg/mL (≈ 0.112 µM); in data set [6], 0.039 µg/mL (≈ 0.0972 µM); in data set [7] it was 0.037 µg/mL (≈ 0.0922 µM); in data set [10], 0.035 µg/mL (≈ 0.0872 µM).

Regarding `CO[C@H]1/C=C/O[C@@]2(C)Oc3c(C)c(O)c4c(O)c(c(/C=N/N5CCN(C)CC5)c(O)c4c3C2=O)NC(=O)/C(C)=C\C=C\[C@H](C)[C@H](O)[C@@H](C)[C@@H](O)[C@@H](C)[C@H](OC(C)=O)[C@@H]1C` [RFP, rifampicin], the minimum inhibitory concentration (MIC) in data set [1] was 0.046 µg/mL (≈ 0.0559 µM); in data set [2], 0.035 µg/mL (≈ 0.0425 µM); with M. tuberculosis H37Rv [3] it was 0.014 µg/mL (≈ 0.017 µM); in [6], less than 0.02 µg/mL; in data set [7], 0.066 µg/mL (≈ 0.0802 µM); in data set [10], 0.057 µg/mL (≈ 0.0693 µM).
